The record followed here is patent US11021445B2, “Carboxylic acid derivative as AT2R receptor antagonist” (SHANDONG DANHONG PHARMACEUTICAL CO., LTD., priority 2017, dated 2021).

One data set addresses T1, hAT2 (Homo sapiens, UniProt P50052).
T1 construct: expressed in transfected cells; host or cells: HEK-293
T1 sequence (P50052 1-363): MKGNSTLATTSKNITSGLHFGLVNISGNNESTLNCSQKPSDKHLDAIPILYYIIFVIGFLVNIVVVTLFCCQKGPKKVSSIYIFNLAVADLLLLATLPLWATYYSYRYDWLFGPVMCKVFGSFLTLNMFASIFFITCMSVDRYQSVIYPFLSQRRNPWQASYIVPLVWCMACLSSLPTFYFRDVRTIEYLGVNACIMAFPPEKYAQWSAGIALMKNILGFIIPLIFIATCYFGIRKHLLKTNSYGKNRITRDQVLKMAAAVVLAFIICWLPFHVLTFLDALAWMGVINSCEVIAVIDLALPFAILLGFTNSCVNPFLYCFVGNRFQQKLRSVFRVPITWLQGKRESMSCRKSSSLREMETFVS
The data set is described as follows: hAT2 receptor binding assay (SPA, [125I]-Sar1-Ile8-Angiotensin II). The note with it: membrane of HEK-293 cells overexpressing hAT2; 0.1 nM 125I ligand. The essentials: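 Membranes from HEK-293 cells overexpressing hAT2 were used at 1.25 μg/well with 250 μg/well SPA beads. Compounds were tested as 8-point 3-fold dilutions, with stocks diluted 250-fold into the reaction. [125I]-Sar1-Ile8-Angiotensin II was present at 0.1 nM final, incubated overnight at room temperature with shaking, then read by scintillation proximity.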

A short description of data set [1]: Two-way permeability study in Caco-2 cells. Type of data set: in vitro ADME. Conditions: human; for efflux ratio at 120 min: pH 7.4; for Papp A→B at 120 min: pH 7.4, A-B direction; for Papp B→A at 120 min: pH 7.4, B-A direction. Here is the method: The two-way permeability of the to-be-tested compound in Caco-2 cells was measured, and whether the to-be-tested compound was transported by efflux or not was tested.
The compound is dissolved in dimethyl sulfoxide (DMSO) or other suitable solvent to prepare a stock solution of the appropriate concentration.
A suitable internal standard (IS) is dissolved in acetonitrile (ACN) or other organic solvent to be used as a stop solution. The specific information will be described in the research report.
Nadolol, metoprolol, digoxin, estrone 3-sulfate potassium (E3S) and GF120918 were used as a hypotonic control compound, a hypertonic control compound, a P-glycoprotein (P-gp) substrate, a breast cancer resistance protein (BCRP) substrate, and an efflux transporter inhibitor in this study. Stock solutions of these compounds are prepared with DMSO and stored at ≤−30° C., and used within 6 months.
In this study, HBSS (Hanks Balanced Salt Solution) containing 10 mM HEPES (2-[4-(2-hydroxyethyl)-1-piperazine]ethanesulfonic acid) was used as a transport buffer (pH 7.40*0.05).
Caco-2 cells were cultured in an MEM medium (Minimum Essential Media) under the conditions of 37±1° C., 5% CO2 and saturated humidity. The cells were then seeded in a Corning Transwell-96 well plate at a density of 1×10^5 cells/cm^2, and then the cells were placed in a carbon dioxide incubator for culture for 21-28 days for transport experiments. The medium was changed once every 5-6 days during culture.
Compounds were administered at concentrations of 2, 10 and 100 μM and were administered in both directions (A-B and B-A directions) with or without 10 μM GF120918, and there are three parallels for each administration concentration. Digoxin and E3S were tested at the concentration of 10 μM and 5 μM, respectively, and administered bidirectionally with or without 10 μM GF120918. The test concentrations of nadolol and metoprolol were 2 μM, and nadolol and metoprolol were administered unidirectionally (the A-B direction) without 10 μM GF120918. The three control compounds were also made in three parallels.
The administration solution, receiving solution and transport buffer were pre-incubated for 30 minutes at 37° C. The cell layer was rinsed twice with the transport buffer. The administration solution and the receiving solution were separately added to the corresponding cell plate wells (75 μL and 250 μL, respectively, for each of the top and base end wells). After sampling, the cell plates were incubated for 120 minutes in an incubator at 37±1° C., 5% CO2 and saturated humidity.
After all the compounds were subjected to vortex oscillation, the compounds after vortex oscillation were centrifuged at 3220×g, and 20° C. for 20 minutes, the appropriate volume of the supernatant was transferred to a sample analysis plate, and after the plate was sealed, the compounds were stored at 2-8° C. if the compounds were not immediately analyzed. The analysis was carried out by the method of LC/MS/MS, and the specific compound treatment method is shown in the research report.
The Lucifer Yellow Rejection Assay was used to test the integrity of Caco-2 cells. Six cell wells were randomly selected from each cell plate, and 100 μM Lucifer Yellow was added respectively. The Lucifer Yellow Rejection Assay and the transport experiment were performed simultaneously. After 120 minutes of incubation, a Lucifer Yellow sample was taken and the relative fluorescence unit (RFU) of the Lucifer Yellow in the sample was detected at a 425/528 nm (excitation/emission) spectrum.
The concentrations of the to-be-tested compound and the control compounds nadolol, metoprolol, digoxin and E3S in the samples were determined by liquid chromatography-tandem mass spectrometry (LC/MS/MS). The retention time of the analyte and internal standard, chromatogram acquisition and chromatogram integration were processed by using the software Analyst (AB Sciex, Framingham, Mass., USA).
(In general: Passage across Caco-2 layers is used to estimate intestinal permeability.)

Structures are written as SMILES.

One may read the IC50 as the concentration at which inhibition is half-maximal. Low readings indicate inhibition by little substance, high ones a need for much substance. For orientation: efflux ratio means the permeability from basolateral to apical divided by that in the opposite direction, in the common usage. One may read the Papp A→B as the apparent permeability from the apical to the basolateral side of a cell layer. A high value points to fast passage. Broadly, the Papp B→A is how fast a substance crosses the layer from the basolateral side. As to `COc1ccc2c(c1OCc1ccccc1)C[C@@H](C(=O)O)N(C(=O)[C@@H](OC1CCCC1)c1ccccc1)C2` [Compound 37], the IC50 at hAT2 was 4.1 nM. For the same molecule, in data set [1], the efflux ratio at 120 min worked out at 32.5, the Papp A→B at 120 min came to 0.27 ×10⁻⁶ cm/s and the Papp B→A at 120 min was found to be 8.68 ×10⁻⁶ cm/s.

As to `COc1ccc2c(c1OCc1ccccc1)C[C@@H](C(=O)O)N(C(=O)[C@@H](OC1CC(F)(F)C1)c1ccccc1)C2` [Compound 51], at hAT2, the IC50 worked out at 3.2 nM.

Molecule `COc1ccc2c(c1OCc1ccccc1)C[C@@H](C(=O)O)N(C(=O)[C@@H](OC1(C)CCCC1)c1ccccc1)C2` [Compound 57] gave a half-inhibitory concentration (IC50) on hAT2 of 5.8 nM. Further, in data set [1], the efflux ratio at 120 min was determined as 26.3, the Papp A→B at 120 min worked out at 0.67 ×10⁻⁶ cm/s and the Papp B→A at 120 min was found to be 17.7 ×10⁻⁶ cm/s.

As for `COc1ccc2c(c1OCc1ccccc1)C[C@@H](C(=O)O)N(C(=O)[C@@H](O[C@H]1CC[C@@H](O)CC1)c1ccccc1)C2` [Compound 63], the IC50 at hAT2 was 10.3 nM.

As for `O=C(O)[C@@H]1Cc2c(ccc(Cl)c2OCc2ccccc2)CN1C(=O)[C@@H](OC1CCCC1)c1ccccc1` [Compound 107], the half-inhibitory concentration (IC50) on hAT2 amounted to 13.2 nM. In data set [1], the efflux ratio at 120 min amounted to 13.1, the Papp A→B at 120 min is 0.48 ×10⁻⁶ cm/s and the Papp B→A at 120 min came to 6.24 ×10⁻⁶ cm/s.

Consider `COc1ccc2c(c1OCc1ccccc1)C[C@@H](C(=O)O)N(C(=O)C(c1ccccc1)c1ccccc1)C2` [EMA-401, reference compound], for which, in data set [1], the apparent permeability from apical to basolateral (Papp A→B) at 120 min amounted to 0.11 ×10⁻⁶ cm/s and the Papp B→A at 120 min is 6.4 ×10⁻⁶ cm/s.
